Assay results as given in ChEMBL document CHEMBL4270593, “Novel spiroindoline HDAC inhibitors: Synthesis, molecular modelling and biological studies” (Eur J Med Chem, 2018).
The source made the active and inactive calls. No cut-off for these calls is given here.

Assays:
[1] = Inhibition of class 1 HDAC in human U87 cells assessed as levels of histone H3 acetylation at lysine 9/14 at 1 uM after 30 hrs by Western blot analysis relative to control; conditions: u87, 30 h
[2] = molecular target: T1, Protein deacetylase HDAC6 (Homo sapiens) (UniProt Q9UBN7); assay: Inhibition of HDAC6 in human U87 cells assessed as increase in levels of alpha-tubulin acetylation after 30 hrs by Western blot analysis; format: cell-based
T1 sequence (whole entry): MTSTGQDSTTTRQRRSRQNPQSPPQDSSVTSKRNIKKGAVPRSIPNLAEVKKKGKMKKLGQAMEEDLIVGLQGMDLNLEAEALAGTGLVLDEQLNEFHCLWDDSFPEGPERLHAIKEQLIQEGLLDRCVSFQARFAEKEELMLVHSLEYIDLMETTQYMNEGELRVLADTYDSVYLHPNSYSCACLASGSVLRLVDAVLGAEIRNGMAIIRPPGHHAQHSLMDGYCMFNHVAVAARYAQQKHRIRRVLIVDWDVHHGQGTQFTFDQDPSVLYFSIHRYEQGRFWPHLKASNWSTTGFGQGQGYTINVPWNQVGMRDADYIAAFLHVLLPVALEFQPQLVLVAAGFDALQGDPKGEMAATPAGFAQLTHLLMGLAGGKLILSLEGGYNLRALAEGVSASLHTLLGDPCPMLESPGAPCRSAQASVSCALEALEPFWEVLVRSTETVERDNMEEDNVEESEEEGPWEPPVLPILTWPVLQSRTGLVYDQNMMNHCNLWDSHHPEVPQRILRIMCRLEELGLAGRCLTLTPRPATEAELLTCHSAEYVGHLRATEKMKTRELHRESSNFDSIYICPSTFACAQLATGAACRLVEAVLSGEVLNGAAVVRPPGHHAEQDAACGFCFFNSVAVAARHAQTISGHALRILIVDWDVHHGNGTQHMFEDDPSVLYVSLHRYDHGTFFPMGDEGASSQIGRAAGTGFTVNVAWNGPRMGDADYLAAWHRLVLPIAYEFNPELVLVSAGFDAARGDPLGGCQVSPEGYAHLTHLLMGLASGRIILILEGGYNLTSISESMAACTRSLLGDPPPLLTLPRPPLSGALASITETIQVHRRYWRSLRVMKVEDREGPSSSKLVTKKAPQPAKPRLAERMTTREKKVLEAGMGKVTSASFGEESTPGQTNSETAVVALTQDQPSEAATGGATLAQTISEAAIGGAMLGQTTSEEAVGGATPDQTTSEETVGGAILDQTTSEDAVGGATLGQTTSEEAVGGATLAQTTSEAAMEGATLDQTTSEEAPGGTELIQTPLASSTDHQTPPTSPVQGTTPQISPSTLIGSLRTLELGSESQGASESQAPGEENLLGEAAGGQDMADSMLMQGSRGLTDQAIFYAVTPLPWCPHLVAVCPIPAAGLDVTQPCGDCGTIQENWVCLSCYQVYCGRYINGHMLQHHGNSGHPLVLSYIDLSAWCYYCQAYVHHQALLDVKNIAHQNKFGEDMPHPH

[3] = molecular target: T2, Protein deacetylase HDAC6 (Homo sapiens, UniProt Q9UBN7); assay: Inhibition of human recombinant N-terminal GST-tagged full length HDAC6 expressed in insect SF9 cells using fluorogenic ZMAL as substrate after 90 mins by fluorescence-based assay
T2 sequence (Q9UBN7 whole entry): T1 sequence (whole entry)

[4] = Inhibition of class 1 HDAC in human NB4 cells assessed as levels of histone H3 acetylation at lysine 9/14 at 1 uM after 30 hrs by Western blot analysis relative to control
[5] = molecular target: Histone deacetylase 1 (Homo sapiens, UniProt Q13547); assay: Inhibition of human recombinant C-terminal His/FLAG-tagged full length HDAC1 expressed in insect SF9 cells using fluorogenic ZMAL as substrate after 90 mins by fluorescence-based assay
Histone deacetylase 1, sequence (Q13547 whole entry): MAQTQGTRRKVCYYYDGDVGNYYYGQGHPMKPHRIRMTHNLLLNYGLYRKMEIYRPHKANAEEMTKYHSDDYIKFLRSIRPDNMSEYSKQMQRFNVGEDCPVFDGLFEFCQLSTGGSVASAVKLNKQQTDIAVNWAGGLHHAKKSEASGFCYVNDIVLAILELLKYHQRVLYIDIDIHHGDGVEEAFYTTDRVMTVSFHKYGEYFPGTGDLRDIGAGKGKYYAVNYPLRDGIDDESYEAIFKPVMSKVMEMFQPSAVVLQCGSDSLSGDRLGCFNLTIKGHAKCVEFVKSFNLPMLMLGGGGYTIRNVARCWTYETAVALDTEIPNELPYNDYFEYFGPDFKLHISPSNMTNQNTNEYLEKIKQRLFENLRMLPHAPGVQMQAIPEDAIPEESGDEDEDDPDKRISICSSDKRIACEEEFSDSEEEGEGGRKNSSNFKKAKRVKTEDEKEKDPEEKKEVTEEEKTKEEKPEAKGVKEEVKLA

[6] = Inhibition of class 1 HDAC in human U87 cells assessed as levels of histone H3 acetylation at lysine 9/14 at 5 uM after 30 hrs by Western blot analysis relative to control; conditions: u87, 30 h
[7] = species on record: Homo sapiens; assay: Selectivity ratio of IC50 for human recombinant C-terminal His/FLAG-tagged full length HDAC1 to IC50 for N-terminal GST-tagged full length HDAC6
[8] = Inhibition of class 1 HDAC in human NB4 cells assessed as levels of histone H3 acetylation at lysine 9/14 at 5 uM after 30 hrs by Western blot analysis relative to control
[9] = test system: NB-4; assay: Induction of cell cycle arrest in human NB4 cells assessed as accumulation at G1 phase after 30 hrs by propidium iodide-based FACS analysis; format: functional
[10] = species on record: Homo sapiens; assay: Selectivity ratio of IC50 for human recombinant C-terminal His/FLAG-tagged full length HDAC2 to IC50 for human recombinant N-terminal GST-tagged full length HDAC6
[11] = species on record: Homo sapiens; assay: Selectivity ratio of IC50 for human recombinant C-terminal His-tagged full length HDAC3/NcoR2 to IC50 for human recombinant N-terminal GST-tagged full length HDAC6
[12] = molecular target: T3, Histone deacetylase 8 (Homo sapiens, UniProt Q9BY41); assay: Inhibition of human recombinant HDAC8 using fluor de Lys(R) as substrate after 90 mins by fluorescence-based assay
T3 sequence (Q9BY41 whole entry): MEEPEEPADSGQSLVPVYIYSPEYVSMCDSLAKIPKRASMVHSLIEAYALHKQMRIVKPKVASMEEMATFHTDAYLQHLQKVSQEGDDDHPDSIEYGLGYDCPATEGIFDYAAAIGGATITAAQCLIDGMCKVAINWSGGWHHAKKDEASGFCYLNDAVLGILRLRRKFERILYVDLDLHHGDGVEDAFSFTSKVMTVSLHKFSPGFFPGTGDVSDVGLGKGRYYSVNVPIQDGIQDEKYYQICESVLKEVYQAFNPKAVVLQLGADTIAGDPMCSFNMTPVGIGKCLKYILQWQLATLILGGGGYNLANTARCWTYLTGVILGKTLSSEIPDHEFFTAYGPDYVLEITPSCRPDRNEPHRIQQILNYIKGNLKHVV

[13] = molecular target: T1, Protein deacetylase HDAC6 (Homo sapiens); assay: Inhibition of HDAC6 in human SH-SY5Y cells assessed as increase in levels of alpha-tubulin acetylation after 30 hrs by Western blot analysis; format: cell-based
[14] = Inhibition of class 1 HDAC in human SH-SY5Y cells assessed as levels of histone H3 acetylation at lysine 9/14 at 5 uM after 30 hrs by Western blot analysis relative to control
[15] = test system: NB-4; assay: Induction of cell death in human NB4 cells assessed as DNA fragmentation at 5 uM after 30 hrs by propidium iodide-based FACS analysis; format: functional
[16] = Cytotoxicity against mouse NIH/3T3 cells assessed as reduction in cell viability by neutral red uptake test; format: cell-based, NIH3T3; conditions: read-out: TC50 (the source's name)
[17] = Inhibition of class 1 HDAC in human SH-SY5Y cells assessed as levels of histone H3 acetylation at lysine 9/14 at 1 uM after 30 hrs by Western blot analysis relative to control
[18] = molecular target: T1, Protein deacetylase HDAC6 (Homo sapiens); assay: Inhibition of HDAC6 in human SH-SY5Y cells assessed as reduction in cell migration at 5 uM measured every 2 mins for 4 days by RTCA based assay
[19] = test system: NB-4; assay: Induction of cell cycle arrest in human NB4 cells assessed as accumulation at G1 phase at 5 uM after 30 hrs by propidium iodide-based FACS analysis; format: functional

| SMILES | FC [1] | IC50 [3] [nM] | FC [4] | IC50 [5] [nM] | FC [6] | Ratio IC50 [7] | FC [8] | also measured |
| --- | --- | --- | --- | --- | --- | --- | --- | --- |
| CN1CCC2(CC1)CN(Cc1ccc(C(=O)NO)cc1)c1ccccc12 | 1.83 | 204 | 1.02 | 11700 | 1.6 | 57 | 2.44 | inhibition [2]: Dose-dependent effect |
| O=C(CCCCCCC(=O)Nc1ccccc1)NO | – | – | – | – | – | – | – | Activity [9]: Active |
| O=C(CCCCCCNC(=O)c1cnc(N(c2ccccc2)c2ccccc2Cl)nc1)NO | – | – | – | – | – | 10 | – | Ratio IC50 [10]: 10; Ratio IC50 [11]: 10 |
| CC(C)(C)OC(=O)N1CCC2(CC1)CN(Cc1ccc(C(=O)NO)s1)c1ccccc12 | – | 719 | – | 10900 | – | 15 | – | IC50 [12]: 1340 nM |
| CC(C)(C)OC(=O)N1CCC2(CC1)CN(Cc1ccc(C(=O)NO)cc1)c1ccccc12 | 2.74 | 41.9 | 1.12 | 4000 | 2.12 | 95 | 0.96 | inhibition [13]: Dose-dependent effect; FC [14]: 1.11; Activity [15]: Active; IC50 [12]: 1600 nM; CC50 [16]: 23000 nM; FC [17]: 1.1; inhibition [18]: Active |
| CN1CCC2(CC1)CN(Cc1ccc(C(=O)NO)s1)c1ccccc12 | – | 1780 | – | 11400 | – | 6 | – | – |
| O=C(CCCCCCNC(=O)c1cnc(N(c2ccccc2)c2ccccc2)nc1)NO | – | – | – | – | – | 10 | – | Ratio IC50 [10]: 10; Ratio IC50 [11]: 10 |
| CC(=O)N1CCC2(CC1)CN(Cc1ccc(C(=O)NO)cc1)c1ccccc12 | – | 62.5 | – | 7290 | – | 116 | – | – |
| O=C(NO)c1ccc(CN2CC3(CCCCC3)c3ccccc32)cc1 | 1.77 | 40.9 | 2.27 | 6790 | 2.21 | 166 | 2.58 | inhibition [2]: Dose-dependent effect; IC50 [12]: 253 nM |
| CN1CCc2c(c3ccccc3n2Cc2ccc(C(=O)NO)cc2)C1 [TUBASTATIN A] | 1.68 to 1.97 | – | 0.84 | – | 2.18 to 2.38 | – | 0.97 | FC [14]: 1.17; FC [17]: 1.13 |
| CC(C)(C)C(=O)N1CCC2(CC1)CN(Cc1ccc(C(=O)NO)cc1)c1ccccc12 | – | 60.1 | – | 4470 | – | 74 | – | Activity [19]: Active |
